Experimental data published in EP0190496A2, “Piperidine derivatives having a gastro-intestinal activity” (BEECHAM GROUP PLC, priority 1984, dated 1986).
Counter-ions that a name gives are not always drawn. Like-named read-outs stand apart in the source and are kept apart here.

Tests used:
[1] = tested on: Cold restraint stress - induced gastric erosions; test: Cold restraint stress-induced gastric erosions (antiulcer test); type: in vivo, Male Wistar rats; conditions: Oral Dose 25 µmol/kg in 0.5% methylcellulose, 30 min before 2.5 hours at 4°C in restraint; mucosal damage scored visually; * p<0.05, ** p<0.01 (Wilcoxon)
Protocol: Male Wistar rats, 175-225g bodyweight are used. Forty eight hours prior to testing, animals are placed in mesh-bottomed cages with 10-12 animals per cage. Twenty-four hours prior to testing, animals are placed in the dark at a temperature of l7 °C. Sixteen hours prior to testing, food is removed from the cages. Drugs are made up in 0.5% methylcellulose, and adminstered at a volume of 1.0ml/100g bodyweight. Eight rats per group are used, with usually 1 control group and 2 test groups. Animals are placed in Bollman type restraining cages and arranged in a vertical position. Thirty minutes after dosing the animals are placed in an ambient temperature of 4 °C for 2.5 hours. At the end of this time the rats are sacrificed, the stomachs removed, cut open and pinned out on cork boards. Mucosal damage is assessed visually and scored on a subjective scale. Statistical differences between control and test groups are assessed using a Wilcoxon Ranking Test.

[2] = tested on: ethanol-induced gastric mucosal erosive damage in the rat; test: Inhibition of ethanol-induced gastric mucosal erosive damage (antiulcer test); type: in vivo; conditions: for inhibition in vivo at 25 µmol/kg: read-out: % Inhibition of gastric erosions
Excerpt: The object of the experiment was to test the ability of drugs to inhibit a state of gastric submucosal haemorrhage induced by absolute ethanol in the conscious rat.
The procedure used was as follows. Male rats, preferably Wistars, were fasted overnight in wire mesh bottom cages, so as to prevent copraphagy. Water was allowed ad. libitum. Six or seven rats per cage were regarded as suitable, and the weight range of the rats used was between 175 and 300g. Water was removed one hour prior to treatment. The rats were then randomly allocated to their respective treatment groups, so that there were no less than five rats per group. One control group was always included.
Each rat was pre-dosed with lml/100g of control or test drug, dissolved or suspended in 0.5% methyl cellulose or 1% Tween 80 in water, via an oral dosing needle. Ninety minutes later each rat was dosed with lml/rat p.o. of absolute ethanol. Ten minutes after the absolute ethanol, the rats were killed by an intracardiac injection of Expiral^*. The stomachs were excised, cut open along the greater curvature to expose the mucosal surface, washed in tap water to remove debris, then stretched on a cork board for examination.
A subjective macroscopic examination of the stomach was carried out with a damage score being allocated to each stomach. Two observers were usually used, one of whom scored the results in a 'blinded' manner. The results were then analysed by the Mann-Whitney U-test, with p<0.05 being regarded as statistically significant.
^*(sodium pentobarbitone solution 200mg/ml)

[3] = tested on: Heidenhain pouch of the dog; test: Gastro-intestinal motility: intraluminal pressure in the Heidenhain pouch; type: in vivo; conditions: dose of 0.5mg/kg i.v., conscious fasted dog, chronic Heidenhain pouch
Protocol: Pressure changes were recorded via a saline filled catheter inserted, with airtight closure, into the fistula of a chronic Heidenhain pouch of the previously fasted and lightly restrained conscious dog. The catheter was connected to a physiological pressure transducer and pressure changes recorded on a hot wire pen recorder. Compounds were administered when the motility was in a phase of relatively low activity and the dose range determined which induced an increase in the amplitude of rhythmical contractions for a period of at least 4-5 minutes.

[4] = Oral Dose 25 µmol/kg, 90 min before 1 ml/rat p.o. absolute ethanol, stomach scored 10 min later, * p<0.05, ** p<0.01, *** p<0.001 (Mann-Whitney U-test)

COc1ccccc1[C@@H]1CCN(Cc2ccccc2)C[C@H]1COc1ccc2c(c1)OCO2 (racemic) [Example 2, (±)trans 1-Benzyl-4-(2'-methoxyphenyl)-3-(3',4'-methylenedioxyphenoxymethyl)piperidine hydrochloride]
% Inhibition of gastric erosions [1]: 58* %
inhibition in vivo at 25 µmol/kg [2, 4]: 47.7%

Fc1ccc(C2=CCN(Cc3ccccc3)CC2COc2ccc3c(c2)OCO3)cc1 (racemic) [Example 11, (±)-1-Benzyl-4-(4'-fluorophenyl)-3-(3,4-methylenedioxy-phenoxymethyl)-1,2,3,6-tetrahydropyridine hydrochloride]
inhibition in vivo at 25 µmol/kg [2, 4]: 26%

Cc1ccccc1[C@@H]1CCN(Cc2ccccc2)C[C@H]1COc1ccc2c(c1)OCO2 (racemic) [Example 17, (±)-trans-1-Benzyl-3-(3',4'-methylenedioxyphenoxy-methyl)-4-(2'-methylphenyl)piperidine hydrochloride]
inhibition in vivo at 25 µmol/kg [2, 4]: 31%

Cc1ccc(OC[C@@H]2CN(Cc3ccccc3)CC[C@H]2c2ccc(F)cc2)cc1 (racemic) [Example 18, (±)-trans-1-Benzyl-4-(4'-fluorophenyl)-3-(4'-methylphenoxymethyl)piperidine maleate]
inhibition in vivo at 25 µmol/kg ([2]; Rattus norvegicus, po): 21%

Cc1ccc(OC[C@@H]2CN(Cc3ccc(F)cc3)CC[C@H]2c2ccc(F)cc2)cc1 (racemic) [Example 19, (±)-trans-1-(4'-Fluorobenzyl)-4-(4'-fluorophenyl)-3-(4'-methylphenoxymethyl)piperidine maleate]
inhibition in vivo at 25 µmol/kg ([2]; Rattus norvegicus, po): 69%

Fc1ccc(CN2CC[C@@H](c3ccc(F)cc3)[C@H](COc3ccccc3)C2)cc1 (racemic) [Example 20, (±)-trans-1-(4'-Fluorobenzyl)-4-(4'-fluorophenyl)-3-phenoxymethylpiperidine maleate]
inhibition in vivo at 25 µmol/kg ([2]; Rattus norvegicus, po): 70%

Fc1ccc(OC[C@@H]2CN(Cc3ccccc3)CC[C@H]2c2ccc(F)cc2)cc1 (racemic) [Example 21, (±)-trans-1-Benzyl-3-(4'-fluorophenoxymethyl)-4-(4'-fluorophenyl)piperidine maleate]
inhibition in vivo at 25 µmol/kg ([2]; Rattus norvegicus, po): 27%

Fc1ccc(CN2CC[C@@H](c3ccc(F)cc3)[C@H](COc3ccc(F)cc3)C2)cc1 (racemic) [Example 22, (±)-trans-1-(4'-Fluorobenzyl)-3-(4'-fluorophenoxy-methyl)-4-(4'-fluorophenyl)piperidine maleate]
inhibition in vivo at 25 µmol/kg ([2]; Rattus norvegicus, po): 53%

Fc1ccc([C@@H]2CCN(Cc3ccccc3)C[C@H]2COc2ccc3c(c2)OCO3)cc1 (single isomer, unassigned) [Example 1, (-)-trans-l-Benzyl-4-(4'-fluorophenyl)-3-(3',4'-methylenedioxyphenoxymethyl)piperidine hydrochloride]
% Inhibition of gastric erosions [1]: 53** %
inhibition in vivo at 25 µmol/kg [2, 4]: 66%
increase in the amplitude of rhythmical contractions for a period of at least 4-5 minutes [3]: active

Fc1ccc(CN2CC[C@@H](c3ccc(F)cc3)[C@H](COc3ccc4c(c3)OCO4)C2)cc1 (single isomer, unassigned) [Example 9, (-) trans-l-(4'-fluorobenzyl)-4-(4'-fluorophenyl)-3-(3',4'-methylenedioxyphenoxymethyl)piperidine hydrochloride]
inhibition in vivo at 25 µmol/kg [2, 4]: 71%

Fc1ccc([C@@H]2CCN(Cc3ccccc3F)C[C@H]2COc2ccc3c(c2)OCO3)cc1 (single isomer, unassigned) [Example 14, (-) trans-l-(2'-Fluorobenzyl)-4-(4'-fluorophenyl)-3-(3',4-methylenedioxyphenoxymethyl)piperidine hydrochloride]
inhibition in vivo at 25 µmol/kg [2, 4]: 39%

c1ccc(CN2CC[C@@H](c3ccccc3)[C@H](COc3ccc4c(c3)OCO4)C2)cc1 (single isomer, unassigned) [Example 15, (-) trans-l-Benzyl-3-(3',4'-methylenedioxyphenoxy-methyl)-4-phenylpiperidine hydrochloride]
inhibition in vivo at 25 µmol/kg [2, 4]: 67%

Fc1ccc(CN2CC[C@@H](c3ccccc3)[C@H](COc3ccc4c(c3)OCO4)C2)cc1 (single isomer, unassigned) [Example 16, (-) trans-l-(4'-Fluorobenzyl)-3-(3',4'-methylenedioxy-phenoxymethyl)-4-phenylpiperidine hydrochloride]
inhibition in vivo at 25 µmol/kg [2, 4]: 83%

Fc1ccc(C2CCN(Cc3ccccc3)CC2COc2ccc3c(c2)OCO3)cc1 (single isomer, unassigned; (+)) [Example 5, (+)trans-l-Benzyl-4-(4'-fluorophenyl)-3-(3',4'-methylenedioxyphenoxymethyl)piperidine hydrochloride]
inhibition in vivo at 25 µmol/kg [2, 4]: 30%

(+) cis-l-(4'-Fluorobenzyl)-4-(4'-fluorophenyl)-3-(3', 4'-methylenedioxyphenoxymethyl)piperidine hydrochloride [Example 12]
% Inhibition of gastric erosions [2, 4]: 84.9** %

(+)cis-1-Benzyl-4-(4'-fluorophenyl)3-(3',4'-methylene- dioxyphenoxymethyl)piperidine hydrochloride [Example 7]
% Inhibition of gastric erosions [2, 4]: 63.1** %

(-) cis-l-(4'-Fluorobenzyl)-4-(4'-fluorophenyl)-3-(3', 4'-methylenedioxyphenoxymethyl)piperidine hydrochloride [Example 13]
% Inhibition of gastric erosions [2, 4]: 46** %

(-)cis-l-Benzyl-4-(4'-fluorophenyl)-3-(3',4'-methylene- dioxyphenoxymethyl)piperidine hydrochloride [Example 8]
% Inhibition of gastric erosions [2, 4]: 46.8* %
